Source: ChEMBL document CHEMBL1127696, “Non-peptide renin inhibitors containing 2-(((3-phenylpropyl)phosphoryl)oxy)alkanoic acid moieties as P2-P3 replacements” (J Med Chem, 1994)

Assays:
Cathepsin D = target: T1, Cathepsin D (Bos taurus, UniProt P80209); assay: In vitro inhibition of bovine cathepsin D.
T1 sequence (P80209 whole entry): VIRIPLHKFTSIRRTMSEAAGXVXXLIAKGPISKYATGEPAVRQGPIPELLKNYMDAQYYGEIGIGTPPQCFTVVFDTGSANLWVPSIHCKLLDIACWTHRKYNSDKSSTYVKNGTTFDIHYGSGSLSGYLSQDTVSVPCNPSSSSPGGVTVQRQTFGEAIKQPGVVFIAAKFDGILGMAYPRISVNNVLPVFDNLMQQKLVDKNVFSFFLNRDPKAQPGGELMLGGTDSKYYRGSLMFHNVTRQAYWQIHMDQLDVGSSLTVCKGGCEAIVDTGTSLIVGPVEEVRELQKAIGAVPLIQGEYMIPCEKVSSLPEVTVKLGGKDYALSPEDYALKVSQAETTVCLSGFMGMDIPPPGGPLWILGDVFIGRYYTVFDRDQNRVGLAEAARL

Renin = target: T2, Renin (Homo sapiens, UniProt P00797); assay: In vitro inhibition of human renin.
T2 sequence (P00797 whole entry): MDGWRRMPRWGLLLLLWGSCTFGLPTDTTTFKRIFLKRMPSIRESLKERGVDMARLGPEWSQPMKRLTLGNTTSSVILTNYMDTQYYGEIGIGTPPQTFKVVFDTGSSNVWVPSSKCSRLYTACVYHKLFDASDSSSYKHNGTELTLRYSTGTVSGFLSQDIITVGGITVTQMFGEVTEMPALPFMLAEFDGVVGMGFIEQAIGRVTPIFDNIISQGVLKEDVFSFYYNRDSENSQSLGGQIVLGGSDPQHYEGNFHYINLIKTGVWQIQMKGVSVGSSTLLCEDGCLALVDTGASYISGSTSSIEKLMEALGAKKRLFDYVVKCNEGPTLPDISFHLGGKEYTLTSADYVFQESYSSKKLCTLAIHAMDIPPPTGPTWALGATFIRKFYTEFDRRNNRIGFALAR

Pepsin A = Pepsin A (Sus scrofa, UniProt P00791); assay: In vitro inhibition of porcine pepsin.
Pepsin A, sequence (P00791 whole entry): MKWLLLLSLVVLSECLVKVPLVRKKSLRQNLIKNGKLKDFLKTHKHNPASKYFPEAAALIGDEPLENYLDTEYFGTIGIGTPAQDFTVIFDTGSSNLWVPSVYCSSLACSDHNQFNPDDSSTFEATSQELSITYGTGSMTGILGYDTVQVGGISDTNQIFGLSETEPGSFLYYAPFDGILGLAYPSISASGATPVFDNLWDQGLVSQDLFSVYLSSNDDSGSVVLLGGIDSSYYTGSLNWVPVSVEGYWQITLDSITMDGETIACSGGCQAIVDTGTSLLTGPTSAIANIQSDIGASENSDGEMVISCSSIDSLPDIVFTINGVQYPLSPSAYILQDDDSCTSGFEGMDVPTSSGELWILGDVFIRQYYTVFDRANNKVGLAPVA

**Q.** Which results are given for `CCCCNC(=O)[C@H](C)C[C@H](O)[C@H](CC1CCCCC1)NC(=O)[C@@H](C)OP(=O)(O)CCCc1ccccc1`?
**A.** IC50 (Cathepsin D): > 10000 nM; IC50 (Renin): 16 nM; IC50 (Pepsin A): > 10000 nM

**Q.** How did the IC50 (Cathepsin D) turn out when `CCCCNC(=O)[C@H](C)C[C@H](O)[C@H](CC1CCCCC1)NC(=O)[C@@H](CCC)OP(=O)(O)CCCc1ccccc1` was run?
**A.** > 10000 nM

**Q.** What about the IC50 (Renin) of the same compound?
**A.** 3.8 nM

**Q.** And the IC50 (Pepsin A)?
**A.** > 10000 nM

**Q.** What does the source list for `CCCC[C@H](OP(=O)(O)CCCc1ccccc1)C(=O)N[C@@H](CC1CCCCC1)[C@@H](O)C(O)CC(C)C` (stereo partly drawn)?
**A.** IC50 (Cathepsin D): > 10000 nM; IC50 (Renin): 25 nM; IC50 (Pepsin A): > 10000 nM

**Q.** For `CCCCNC(=O)[C@@H](C)C[C@@H](O)[C@@H](CC1CCCCC1)NC(=O)[C@H](CCCC)OP(=O)(O)CCCCc1ccccc1`, which IC50 (Cathepsin D) is on record?
**A.** > 10000 nM

**Q.** What about the IC50 (Renin) of the same compound?
**A.** 360 nM

**Q.** What about the IC50 (Pepsin A) of the same compound?
**A.** > 10000 nM

**Q.** Which IC50 (Cathepsin D) does the source give for `CCCCNC(=O)[C@H](C)C[C@H](O)[C@H](CC1CCCCC1)NC(=O)[C@H](CCCC)OP(=O)(O)CCCc1ccccc1` here?
**A.** > 10000 nM

**Q.** What about the IC50 (Renin) of the same compound?
**A.** 2.5 nM

**Q.** And the IC50 (Pepsin A)?
**A.** > 10000 nM

**Q.** How did the IC50 (Cathepsin D) turn out when `CCCCNC(=O)[C@H](C)C[C@H](O)[C@H](CC1CCCCC1)NC(=O)[C@H](C)OP(=O)(O)CCCc1ccccc1` was run?
**A.** > 10000 nM

**Q.** And the IC50 (Renin)?
**A.** 17.5 nM

**Q.** What about the IC50 (Pepsin A) of the same compound?
**A.** > 10000 nM

**Q.** Which IC50 (Cathepsin D) does the source give for `CCCC[C@H](OP(=O)(O)CCCc1ccccc1)C(=O)N[C@@H](CC1CCCCC1)[C@@H](O)CCSc1ccccn1` here?
**A.** > 10000 nM

**Q.** And the IC50 (Renin)?
**A.** 115 nM

**Q.** And the IC50 (Pepsin A)?
**A.** > 10000 nM

**Q.** For `CCCC[C@H](OP(=O)(O)CCCc1ccccc1)C(=O)N[C@@H](CC1CCCCC1)[C@@H](O)C(=O)OC(C)C`, which IC50 (Cathepsin D) is on record?
**A.** > 10000 nM

**Q.** And the IC50 (Renin)?
**A.** 55 nM

**Q.** And the IC50 (Pepsin A)?
**A.** > 10000 nM

**Q.** Which results are given for `CCCC[C@H](OP(=O)(O)CCCc1ccccc1)C(=O)N[C@@H](CC1CCCCC1)[C@@H](O)CC(=O)N[C@@H](C(=O)NCc1cnc(C)nc1N)[C@@H](C)CC`?
**A.** IC50 (Cathepsin D): > 10000 nM; IC50 (Renin): 58 nM; IC50 (Pepsin A): > 10000 nM

**Q.** Which IC50 (Cathepsin D) does the source give for `CCCCNC(=O)[C@@H](C)C[C@@H](O)[C@@H](CC1CCCCC1)NC(=O)[C@H](CCCC)OP(=O)(O)CCc1ccccc1` here?
**A.** > 10000 nM

**Q.** And the IC50 (Renin)?
**A.** 46 nM

**Q.** And the IC50 (Pepsin A)?
**A.** > 10000 nM

**Q.** How did the IC50 (Cathepsin D) turn out when `CCCCNC(=O)[C@@H](C)C[C@@H](O)[C@@H](CC1CCCCC1)NC(=O)[C@H](CCCC)OP(=O)(O)CCCc1ccccc1` was run?
**A.** > 10000 nM

**Q.** And the IC50 (Renin)?
**A.** 4.8 nM

**Q.** What about the IC50 (Pepsin A) of the same compound?
**A.** > 10000 nM

**Q.** How did the IC50 (Cathepsin D) turn out when `CCCCNC(=O)[C@H](C)C[C@H](O)[C@H](CC1CCCCC1)NC(=O)[C@H](CCC)OP(=O)(O)CCCc1ccccc1` was run?
**A.** > 10000 nM

**Q.** And the IC50 (Renin)?
**A.** 4.2 nM

**Q.** What about the IC50 (Pepsin A) of the same compound?
**A.** > 10000 nM

**Q.** `CCCCNC(=O)[C@@H](C[C@H](O)[C@H](CC(C)C)NC(=O)[C@H](CCCC)OP(=O)(O)CCCc1ccccc1)C(C)C` was tested. Which IC50 (Cathepsin D) did it give?
**A.** 2300 nM

**Q.** What about the IC50 (Renin) of the same compound?
**A.** 2.8 nM

**Q.** What about the IC50 (Pepsin A) of the same compound?
**A.** 10000 nM

**Q.** What does the source list for `CCCCNC(=O)[C@H](C)C[C@H](O)[C@H](CC1CCCCC1)NC(=O)[C@@H](CCCC)OP(=O)(CCCc1ccccc1)OCC` (stereo in doubt; 7i)?
**A.** IC50 (Cathepsin D): > 10000 nM; IC50 (Renin): 22.5 nM; IC50 (Pepsin A): > 10000 nM

**Q.** Which results are given for `CCCCNC(=O)[C@H](C)C[C@H](O)[C@H](CC1CCCCC1)NC(=O)[C@@H](CCCC)OP(=O)(CCCc1ccccc1)OCC` (stereo in doubt; 7j)?
**A.** IC50 (Cathepsin D): > 10000 nM; IC50 (Renin): 350 nM; IC50 (Pepsin A): > 10000 nM

**Q.** `CCCCNC(=O)[C@H](C)C[C@H](O)[C@H](CC1CCCCC1)NC(=O)[C@H](CCCC)OP(=O)(CCCc1ccccc1)OCC` (stereo in doubt; 7k) was tested. Which IC50 (Cathepsin D) did it give?
**A.** 2800 nM

**Q.** What about the IC50 (Renin) of the same compound?
**A.** 15 nM

**Q.** What about the IC50 (Pepsin A) of the same compound?
**A.** > 10000 nM

**Q.** Which results are given for `CCCCNC(=O)[C@H](C)C[C@H](O)[C@H](CC1CCCCC1)NC(=O)[C@H](CCCC)OP(=O)(CCCc1ccccc1)OCC` (stereo in doubt; 7l)?
**A.** IC50 (Cathepsin D): > 10000 nM; IC50 (Renin): 215 nM; IC50 (Pepsin A): > 10000 nM

**Q.** Which results are given for `CCC[C@@H](OP(=O)(CCCc1ccccc1)OCC)C(=O)N[C@@H](CC1CCCCC1)[C@@H](O)[C@@H](O)CC(C)C` (stereo in doubt; 8f)?
**A.** IC50 (Cathepsin D): 2150 nM; IC50 (Renin): 17.7 nM; IC50 (Pepsin A): > 10000 nM

**Q.** For `CCC[C@@H](OP(=O)(CCCc1ccccc1)OCC)C(=O)N[C@@H](CC1CCCCC1)[C@@H](O)[C@@H](O)CC(C)C` (stereo in doubt; 8g), which IC50 (Cathepsin D) is on record?
**A.** > 10000 nM

**Q.** And the IC50 (Renin)?
**A.** 130 nM

**Q.** And the IC50 (Pepsin A)?
**A.** > 10000 nM

**Q.** `CCC[C@@H](OP(=O)(CCCc1ccccc1)OCC)C(=O)N[C@@H](CC1CCCCC1)[C@@H](O)[C@@H](O)C1CC1` (stereo in doubt; 8h) was tested. Which IC50 (Cathepsin D) did it give?
**A.** 4150 nM

**Q.** What about the IC50 (Renin) of the same compound?
**A.** 20 nM

**Q.** What about the IC50 (Pepsin A) of the same compound?
**A.** > 10000 nM

**Q.** `CCC[C@@H](OP(=O)(CCCc1ccccc1)OCC)C(=O)N[C@@H](CC1CCCCC1)[C@@H](O)[C@@H](O)C1CC1` (stereo in doubt; 8i) was tested. Which IC50 (Cathepsin D) did it give?
**A.** > 10000 nM

**Q.** What about the IC50 (Renin) of the same compound?
**A.** 155 nM

**Q.** What about the IC50 (Pepsin A) of the same compound?
**A.** > 10000 nM
